In the NIST ThermoML archive (doi:10.1021/acs.jced.8b00451):
Numbers after ± are expanded uncertainties.

Details: Liquid, Ebulliometric method (Recirculating still)

| Structure (SMILES) | vapor or sublimation pressure (394.7 K) | vapor or sublimation pressure (434 K) | vapor or sublimation pressure (434.1 K) | vapor or sublimation pressure (444.3 K) | vapor or sublimation pressure (459.3 K) | vapor or sublimation pressure (469.3 K) | vapor or sublimation pressure (479.4 K) |
| --- | --- | --- | --- | --- | --- | --- | --- |
| O=Cc1ccco1 [2-furaldehyde] | 30 ± 0.2 kPa |  |  |  |  |  |  |
| CC1CCC(=O)O1 (configuration not stated) [γ-valerolactone] |  | 29.9 ± 0.2 kPa | 30 ± 0.2 kPa | 40.6 ± 0.2 kPa | 61.7 ± 0.2 kPa | 80 ± 0.2 kPa | 102.6 ± 0.3 kPa |
